ChEMBL document CHEMBL1143336, “Structure-activity relationship study on polyglutamine binding peptide QBP1” (Bioorg Med Chem, 2009)

Legend:
[1] = Inhibition of thioredoxin-conjugated PolyQ-62 protein aggregation expressed in Escherichia coli DH5alpha at 20 uM relative to control
[2] = Inhibition of thioredoxin-conjugated PolyQ-62 protein aggregation expressed in Escherichia coli DH5alpha

| Compound | inhibition [1] | IC50 [2] |
| --- | --- | --- |
| CC[C@H](C)[C@H](NC(=O)CNC(=O)[C@@H]1CCCN1C(=O)[C@H](Cc1c[nH]c2ccccc12)NC(=O)[C@H](Cc1c[nH]c2ccccc12)NC(=O)[C@H](CCCCN)NC(=O)[C@H](Cc1c[nH]c2ccccc12)NC(=O)[C@@H](CC(N)=O)NC(=O)[C@H](CO)NC(C)=O)C(=O)N[C@@H](Cc1ccccc1)C(=O)N[C@@H](CC(=O)O)C(N)=O | 80.7% | 4.5 µM |
| CC[C@H](C)[C@H](NC(=O)CNC(=O)[C@@H]1CCCN1C(=O)[C@H](Cc1c[nH]c2ccccc12)NC(=O)[C@H](Cc1c[nH]c2ccccc12)NC(=O)[C@H](CCCCN)NC(=O)[C@H](Cc1c[nH]c2ccccc12)NC(=O)[C@H](CC(N)=O)NC(=O)[C@H](CO)NC(C)=O)C(=O)N[C@@H](Cc1ccccc1)C(=O)N[C@H](CC(=O)O)C(N)=O | 77.2% | 5 µM |
| CC[C@H](C)[C@H](NC(=O)CNC(=O)[C@@H]1CCCN1C(=O)[C@H](Cc1c[nH]c2ccccc12)NC(=O)[C@H](Cc1c[nH]c2ccccc12)NC(=O)[C@H](CCCCN)NC(=O)[C@H](Cc1c[nH]c2ccccc12)NC(=O)[C@H](CC(N)=O)NC(=O)[C@H](CO)NC(C)=O)C(=O)N[C@H](Cc1ccccc1)C(=O)N[C@@H](CC(=O)O)C(N)=O | 65.3% | > 20 µM |
| CC[C@H](C)[C@H](NC(=O)CNC(=O)[C@@H]1CCCN1C(=O)[C@H](Cc1c[nH]c2ccccc12)NC(=O)[C@H](Cc1c[nH]c2ccccc12)NC(=O)[C@H](CCCCN)NC(=O)[C@H](Cc1c[nH]c2ccccc12)NC(=O)[C@H](CC(N)=O)NC(=O)[C@H](CO)NC(C)=O)C(=O)N[C@@H](Cc1ccccc1)C(=O)N[C@@H](CC(=O)O)C(N)=O | 76.7% | 5 µM |
| CC[C@H](C)[C@H](NC(=O)[C@H](C)NC(=O)[C@@H]1CCCN1C(=O)[C@H](Cc1c[nH]c2ccccc12)NC(=O)[C@H](Cc1c[nH]c2ccccc12)NC(=O)[C@H](CCCCN)NC(=O)[C@H](Cc1c[nH]c2ccccc12)NC(=O)[C@H](CC(N)=O)NC(=O)[C@H](CO)NC(C)=O)C(=O)N[C@@H](Cc1ccccc1)C(=O)N[C@@H](CC(=O)O)C(N)=O | 64.9% | 11.5 µM |
| CC[C@H](C)[C@H](NC(=O)CNC(=O)[C@@H]1CCCN1C(=O)[C@H](Cc1c[nH]c2ccccc12)NC(=O)[C@H](Cc1c[nH]c2ccccc12)NC(=O)[C@H](CCCCN)NC(=O)[C@H](Cc1c[nH]c2ccccc12)NC(=O)[C@H](CC(N)=O)NC(=O)[C@@H](CO)NC(C)=O)C(=O)N[C@@H](Cc1ccccc1)C(=O)N[C@@H](CC(=O)O)C(N)=O | 83.2% | 4.4 µM |
| CC[C@H](C)[C@@H](NC(=O)CNC(=O)[C@@H]1CCCN1C(=O)[C@H](Cc1c[nH]c2ccccc12)NC(=O)[C@H](Cc1c[nH]c2ccccc12)NC(=O)[C@H](CCCCN)NC(=O)[C@H](Cc1c[nH]c2ccccc12)NC(=O)[C@H](CC(N)=O)NC(=O)[C@H](CO)NC(C)=O)C(=O)N[C@@H](Cc1ccccc1)C(=O)N[C@@H](CC(=O)O)C(N)=O | 33.2% | – |
| CC[C@H](C)[C@H](NC(=O)CNC(=O)[C@@H]1CCCN1C(=O)[C@@H](Cc1c[nH]c2ccccc12)NC(=O)[C@H](Cc1c[nH]c2ccccc12)NC(=O)[C@H](CCCCN)NC(=O)[C@H](Cc1c[nH]c2ccccc12)NC(=O)[C@H](CC(N)=O)NC(=O)[C@H](CO)NC(C)=O)C(=O)N[C@@H](Cc1ccccc1)C(=O)N[C@@H](CC(=O)O)C(N)=O | 8.4% | – |
| CC[C@H](C)[C@H](NC(=O)CNC(=O)[C@@H]1CCCN1C(=O)[C@H](Cc1c[nH]c2ccccc12)NC(=O)[C@@H](Cc1c[nH]c2ccccc12)NC(=O)[C@H](CCCCN)NC(=O)[C@H](Cc1c[nH]c2ccccc12)NC(=O)[C@H](CC(N)=O)NC(=O)[C@H](CO)NC(C)=O)C(=O)N[C@@H](Cc1ccccc1)C(=O)N[C@@H](CC(=O)O)C(N)=O | 6.4% | – |
| CC[C@H](C)[C@H](NC(=O)CNC(=O)[C@@H]1CCCN1C(=O)[C@H](Cc1c[nH]c2ccccc12)NC(=O)[C@H](Cc1c[nH]c2ccccc12)NC(=O)[C@@H](CCCCN)NC(=O)[C@H](Cc1c[nH]c2ccccc12)NC(=O)[C@H](CC(N)=O)NC(=O)[C@H](CO)NC(C)=O)C(=O)N[C@@H](Cc1ccccc1)C(=O)N[C@@H](CC(=O)O)C(N)=O | 9.9% | – |
| CC[C@H](C)[C@H](NC(=O)CNC(=O)[C@@H]1CCCN1C(=O)[C@H](Cc1c[nH]c2ccccc12)NC(=O)[C@H](Cc1c[nH]c2ccccc12)NC(=O)[C@H](CCCCN)NC(=O)[C@@H](Cc1c[nH]c2ccccc12)NC(=O)[C@H](CC(N)=O)NC(=O)[C@H](CO)NC(C)=O)C(=O)N[C@@H](Cc1ccccc1)C(=O)N[C@@H](CC(=O)O)C(N)=O | 41.1% | – |
| CC[C@H](C)[C@H](NC(=O)CNC(=O)[C@H]1CCCN1C(=O)[C@H](Cc1c[nH]c2ccccc12)NC(=O)[C@H](Cc1c[nH]c2ccccc12)NC(=O)[C@H](CCCCN)NC(=O)[C@H](Cc1c[nH]c2ccccc12)NC(=O)[C@H](CC(N)=O)NC(=O)[C@H](CO)NC(C)=O)C(=O)N[C@@H](Cc1ccccc1)C(=O)N[C@@H](CC(=O)O)C(N)=O | 25.7% | – |
| CC[C@H](C)[C@H](NC(=O)[C@@H](C)NC(=O)[C@@H]1CCCN1C(=O)[C@H](Cc1c[nH]c2ccccc12)NC(=O)[C@H](Cc1c[nH]c2ccccc12)NC(=O)[C@H](CCCCN)NC(=O)[C@H](Cc1c[nH]c2ccccc12)NC(=O)[C@H](CC(N)=O)NC(=O)[C@H](CO)NC(C)=O)C(=O)N[C@@H](Cc1ccccc1)C(=O)N[C@@H](CC(=O)O)C(N)=O | 16.3% | – |
| Ac-ANWKWWPGIFD-NH2 | 78.2% | 6.3 µM |
| Ac-KWWPGIFD-NH2 | 5.4% | – |
| Ac-NWKWWPGIFD-NH2 | 78.2% | 5 µM |

| Compound | inhibition [1] | IC50 [2] |
| --- | --- | --- |
| Ac-SAWKWWPGIFD-NH2 | 82.2% | 4.3 µM |
| Ac-SNAKWWPGIFD-NH2 | -4% | – |
| Ac-SNWAWWPGIFD-NH2 | 78.2% | 8.5 µM |
| Ac-SNWKAWPGIFD-NH2 | -5.4% | – |
| Ac-SNWKWWAGIFD-NH2 | 58.9% | 10 µM |
| Ac-SNWKWWP-NH2 | 11.4% | – |
| Ac-SNWKWWPG-NH2 | 5.9% | – |
| Ac-SNWKWWPGAFD-NH2 | 9.9% | – |
| Ac-SNWKWWPGI-NH2 | 7.4% | – |
| Ac-SNWKWWPGIAD-NH2 | 11.4% | – |
| Ac-SNWKWWPGIF-NH2 | 57.4% | 14.6 µM |
| Ac-SNWKWWPGIFA-NH2 | 67.8% | 15.6 µM |
| Ac-WKWWPGIF-NH2 | 85.6% | 3.6 µM |
| Ac-WKWWPGIFD-NH2 | 81.2% | 2.9 µM |
| Ac-WWPGIFD-NH2 | 5% | – |
